Experimental data as given in patent US20240148701A1, “WOULD HEALING METHODS” (The University of Sydney, priority 2021, published 2024).

Experiments:
[1] = system: HUVECs; experiment: Cell migration by scratch assay in HUVECs (CL 316,243); assay type: cell-based, human
[2] = system: HUVECs; experiment: Tubule formation in HUVECs on reduced growth factor extracellular matrix; assay type: cell-based, human; conditions: 10 and 100 ng/ml compared to the control
Experimental: Human umbilical vein endothelial cells (HUVECs; Lonza C2519AS, pooled source, Australia) were grown using standard cell culture conditions in endothelial cell growth medium (EGM Plus®, containing 2% fetal bovine serum, Lonza, Australia). All cells were regularly confirmed to be mycoplasma negative. Two different pooled source cell lines were used in experiments and all were used within passages 2-4. Human adult dermal microvascular endothelial cells were also obtained from Lonza (CC-2543, Lonza Australia) and cultured as above but using endothelial growth medium 2-MV bulletkit. Endothelial colony forming cells (ECFCs) were derived from the peripheral blood of participants in the BioHEART study. This registered study (ACTRN12618001322224) complies with the Declaration of Helsinki and the study protocol and design has been approved by the Northern Sydney Local Health District Human Research Ethics Committee (HREC/17/HAWKE/343). […]
Once they were ˜70% confluent, cells were re-suspended in diluted EGM Plus® (1:3) and plated on reduced-growth factor extracellular matrix (15 mg/ml, Cultrex, Trevigen, USA) at a density of 1.5×10^4 cells/cm^2. […] Cells were incubated in an EVOS FL Auto Imaging system for 16 hours and tubule formation recorded every hour. Optimal tube formation occurred at the 8-hour timepoint; tubule number at this point was quantified manually using NIH Image J software. […]

[3] = system: Nox 4; experiment: Immunoblot of hind limb Nox 4 expression; assay type: in vivo, mouse
Experimental: (§1) Hind limb tissue including the gastrocnemius and adductor muscles were isolated and collected at 14 or 28 days. Tissues were separated and implanted in OCT or placed in cryovials and snap-frozen in liquid nitrogen or were fixed in 10% formalin for 24-hours and then moved to 70% ethanol for storage.
(§2) Gastrocnemius samples were stored at −80° C. and then mechanically homogenized in ice-cold lysis buffer containing 150 mmol/L NaCl, 200 mmol/L Tris-HCl (pH 8.0), 1% Triton X-100, 0.5% deoxycholic acid, 0.1% SDS, N-ethylmaleimide (25 mM) and protease inhibitors (cOmplete™ EDTA-free, Roche Diagnostics). 30 μg of protein lysate was denatured and run under reducing conditions on SDS-PAGE (Bolt™ pre-cast gels and reagents, Thermofisher Scientific, Australia) and transferred onto Immobilon polyvinylidene fluoride membrane (Merck Millipore, Australia). […] Membranes were detected using an Odyssey imaging platform (Licor, USA).

[4] = system: eNOS; experiment: Immunoblot of eNOS expression and serine 1177 phosphorylation in ischemic hind limb; assay type: in vivo, mouse; conditions: ischemic hindlimb, type 1 diabetes model
Experimental: (§3) Gastrocnemius samples were stored at −80° C. and then mechanically homogenized in ice-cold lysis buffer containing 150 mmol/L NaCl, 200 mmol/L Tris-HCl (pH 8.0), 1% Triton X-100, 0.5% deoxycholic acid, 0.1% SDS, N-ethylmaleimide (25 mM) and protease inhibitors (cOmplete™ EDTA-free, Roche Diagnostics). 30 μg of protein lysate was denatured and run under reducing conditions on SDS-PAGE (Bolt™ pre-cast gels and reagents, Thermofisher Scientific, Australia) and transferred onto Immobilon polyvinylidene fluoride membrane (Merck Millipore, Australia). Membranes were incubated in primary antibodies directed at determining protein expression of the following: Nox isoforms (anti-Nox 2, 1:5000; Abcam, Australia; anti-Nox-4, 1:5000; Abcam, Australia); reactive nitrogen species (anti-nitrotyrosine, 1:1000; Abcam, Australia); and both expression and phosphorylation of eNOS (anti Phospho eNOS serine 1177, 1:1000, Cell Signaling Technology, USA; anti-eNOS 1:1000, BD Biosciences, USA) and Akt (anti Phospho Akt 1:1000, Akt 1:1000, Cell Signaling Technology, USA). Specific secondary antibodies recognizing rabbit or mouse primary antibodies were used (IRDye®, Licor; 1:20,000, USA). Membranes were detected using an Odyssey imaging platform (Licor, USA).

[5] = system: nitrotyrosine; experiment: Immunoblot of nitrotyrosine in hind limb tissue; assay type: in vivo, mouse; conditions: ischemic hind limbs of type 1 diabetic mice
Experimental: as §3

[6] = system: Nox 2; experiment: Immunoblot of hind limb Nox 2 expression; assay type: in vivo, mouse; conditions: ischemic limb, non-diabetic mice, n=4, P>0.05
Experimental: as §1, §2

[7] = system: eNOS; experiment: eNOS immunoprecipitation, glutathionylation of eNOS in ischemic hind limb; assay type: in vivo, mouse; conditions: ischemic limbs of type 1 diabetes mice
Experimental: Gastronemius protein (500 μg) extracted as above was used for co-immunoprecipitation with eNOS. Protein G dynabeads (1.5 mg/ml, 2.8 μm beads, Thermofisher Scientific, Australia) were covalently conjugated with mouse anti-eNOS antibody (BD Biosciences, 1 μg) using bis(sulfosuccinimidyl) suberate amine-amine cross-linking solution (5 mM; ThermoFisher Scientific, Australia). Beads were washed with PBS and incubated with protein lysate overnight at 4° C. IgG controls were prepared using anti-IgG antibodies conjugated to dynabeads using an identical process. Protein was eluted from beads using LDS buffer, denatured and run in non-reduced conditions on 8% Bis-Tris gels using SDS-PAGE and transferred onto polyvinylidene fluoride membrane as above. Expression of oxidized glutathione was detected using mouse anti-glutathione antibody (Virogen, 1:1000). eNOS was detected using rabbit anti-eNOS (Cell Signaling Technology, 1:1000, Australia). Odyssey detection system was used to visualize bands as above.

[8] = Glucose tolerance testing in type 2 diabetes model; assay type: in vivo, mouse
Experimental: Glucose tolerance testing was conducted in fasted type 2 diabetic mice. Rodent chow was removed overnight and testing was conducted in the morning. After baseline glucose testing mice were injected intraperitoneal with sterile D-glucose (2 g/kg). Repeated blood glucose sampling was conducted every 15-30 minutes for 2 hours.

SMILES: C[C@H](Cc1ccc2c(c1)OC(C(=O)[O-])(C(=O)[O-])O2)NC[C@H](O)c1cccc(Cl)c1.[Na+].[Na+] [CL 316,243]
- closure of denuded zone ([1]; by 24 hours at the higher concentrations): > 90%
- migration of HUVECs into the denuded zone ([1]; scratch assay over 24 hours, 1-1000 ng/ml, vs vehicle control): significantly increased migration
- number of tubules formed [2]: significantly increased
- Nox 4 hind limb protein expression ([3]; ischemic limb, non-diabetic mice, n=4, P>0.05): 0.88±0.28 fold change from vehicle
- diabetes-induced elevation in Nox4 expression ([3]; type 1 diabetic mice, ischemic and non-ischemic limb, back to control levels): markedly reduced
- eNOS expression [4]: unaltered
- phosphorylation of eNOS at serine 1177 [4]: did not appear to be affected
- decrease of nitrotyrosine protein levels [5]: > 70%
- Nox 2 hind limb protein expression [6]: 1.04±0.46 fold change from vehicle
- glutathionylation of eNOS [7]: largely abolished
- fasted blood glucose levels ([8]; fasted for glucose tolerance tests, did not reach significant difference): appeared lower
- glucose tolerance ([8]; non-hyperglycemic, non-diabetic controls): even improved
- glucose tolerance ([8]; type 2 diabetic mice): improved
